Measured values as given in patent US7785879B1, “Pregnane X receptor compositions, crystals and uses thereof” (Schering Corporation, priority 2005, dated 2010).

Key:
PXR-LBD-L10-SRC = molecular target: T1, PXR-LBD-L10-SRC (Homo sapiens, UniProt O75469); assay: Temperature-dependent circular dichroism, stabilization of PXR-LBD-L10-SRC; conditions: 25 uM compound
T1 sequence (O75469 with tags, fused parts or gaps): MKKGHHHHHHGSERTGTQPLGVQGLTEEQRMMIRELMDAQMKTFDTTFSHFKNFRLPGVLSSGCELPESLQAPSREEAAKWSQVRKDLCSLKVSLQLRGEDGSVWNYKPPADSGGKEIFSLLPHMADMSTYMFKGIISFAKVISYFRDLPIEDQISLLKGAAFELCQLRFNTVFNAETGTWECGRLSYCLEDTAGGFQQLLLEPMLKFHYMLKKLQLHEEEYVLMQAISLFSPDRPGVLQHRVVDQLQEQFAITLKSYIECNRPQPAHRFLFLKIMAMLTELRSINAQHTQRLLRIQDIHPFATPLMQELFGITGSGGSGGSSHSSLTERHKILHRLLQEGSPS
Procedure: (§1) The CD is a function of wavelength.
(§2) PXR-LBD-L10-SRC was expressed and purified essentially as set forth above. […] Stabilization of PXR-LBD-L10-SRC in the presence of various substances was measured by temperature-dependent circular dichroism. PXR-LBD-L10-SRC was assayed under the following conditions:
(§3) Buffer: 25 mM Hepes, pH 7.9, 150 mM NaCl, 5% glycerol, 10 mM BME,
(§4) heating ramp at 2° C./min
(§5) temperature range: 30-80° C.

[1] = molecular target: T2, human PXR-LBD-L10-SRC (SEQ ID NO: 24) (Homo sapiens, UniProt O75469); assay: Ligand binding assay (radioligand, filter plate); conditions: conclusion from the radioligand binding tables
T2 sequence (O75469 with tags, fused parts or gaps): T1 sequence (O75469 with tags, fused parts or gaps)
Procedure: Chemilluminescence can be detected, for example, in a scintillation counter (Packard Top-counter). Specifically, the bound complex can be contacted with scintillant and then analyzed for the occurrence of scintillation.
After one hour of incubation at room temperature, the mixture was transferred to an imobilon multiScreen filter plate (Millipore). The plate was washed five times with PBS and dried under vacuum. The dried plate was added Opti-Fluor Scitillation cocktail before counting in a Parkard Top-counter.

PXR = molecular target: T3, PXR (Homo sapiens, UniProt O75469); conditions: Table 2; read-out: reported Kd; cited from earlier work
T3 sequence (O75469 1-434): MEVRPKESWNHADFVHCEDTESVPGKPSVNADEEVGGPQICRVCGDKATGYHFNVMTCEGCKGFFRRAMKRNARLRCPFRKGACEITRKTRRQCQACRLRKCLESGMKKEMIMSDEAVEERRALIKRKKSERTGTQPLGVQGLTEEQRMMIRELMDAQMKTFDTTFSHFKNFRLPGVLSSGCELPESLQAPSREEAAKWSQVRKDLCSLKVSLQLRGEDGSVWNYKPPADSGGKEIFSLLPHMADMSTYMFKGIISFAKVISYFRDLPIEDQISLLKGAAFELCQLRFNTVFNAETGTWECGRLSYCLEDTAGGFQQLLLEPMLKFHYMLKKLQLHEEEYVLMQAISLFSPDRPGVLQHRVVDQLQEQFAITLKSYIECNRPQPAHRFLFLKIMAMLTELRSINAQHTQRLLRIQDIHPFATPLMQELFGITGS

PXR (PXR-LBD-L10-SRC) = molecular target: T4, PXR (PXR-LBD-L10-SRC) (Homo sapiens, UniProt O75469); assay: Temperature-dependent circular dichroism, stabilization of PXR-LBD-L10-SRC; conditions: human, pH 7.9
T4 sequence (O75469 with tags, fused parts or gaps): T1 sequence (O75469 with tags, fused parts or gaps)
Procedure: as §1, §2, §3, §4, §5

SMILES	Tm (PXR-LBD-L10-SRC; 2.5 μM protein, 225 nm, apo enzyme Tm 52.9 ± 0.05)	ΔTm (PXR-LBD-L10-SRC; vs PXR-LBD-L10-SRC apo enzyme)	Kd (PXR-LBD-L10-SRC; from CD thermal denaturation)	binding activity of PXR [1]	Kd (PXR)	ΔTm at 25 µM (PXR (PXR-LBD-L10-SRC))
Clc1ccccc1C(c1ccccc1)(c1ccccc1)n1ccnc1 [Clotrimazole]	58.5 C	5.6 C	200 nM	significant	300 nM	
O=C1C(CC[S+]([O-])c2ccccc2)C(=O)N(c2ccccc2)N1c1ccccc1 (stereo not drawn) [sulfopyrole]						2.3 °C
